Legend:
Format in all cases: in vivo
[1] = test system: posumbu knotweed; experiment: Test Example 3: herbicidal effects in soil treatment; settings: dose 3.2 g/a
In short: (§1)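 Seeds were sown in sterilized diluvial soil and covered with about 1.5 cm of soil. Compounds, formulated as emulsifiable concentrates and diluted with water, were sprayed evenly over the soil surface at set doses in g/a. Herbicidal effect was scored on a rating scale three weeks later.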

[2] = test system: water foxtail; experiment: as above; settings: dose 3.2 g/a
In short: as §1

[3] = test system: common lambsquater; experiment: as above; settings: dose 3.2 g/a
In short: as §1

[4] = test system: large crabgrass; experiment: as above; settings: dose 3.2 g/a
In short: as §1

[5] = test system: Italian ryegrass; experiment: as above; settings: dose 3.2 g/a
In short: as §1

[6] = test system: giant foxtail; experiment: as above; settings: dose 3.2 g/a
In short: as §1

[7] = test system: common chickweed; experiment: as above; settings: dose 3.2 g/a
In short: as §1

[8] = test system: common ragweed; experiment: as above; settings: dose 3.2 g/a
In short: as §1

[9] = test system: barnyardgrass; experiment: as above; settings: dose 3.2 g/a
In short: as §1

[10] = test system: velvetleaf; experiment: as above; settings: dose 3.2 g/a
In short: as §1

[11] = test system: redroot pigweed; experiment: as above; settings: dose 3.2 g/a
In short: as §1

[12] = test system: posumbu knotweed; experiment: Test Example 4: herbicidal effect in foliage treatment; settings: dose 3.2 g/a, three weeks after application
In short: (§2)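 A uniform foliar spray of emulsifiable concentrate, diluted with water to give the stated g/a dose, was applied to plants raised for 14 days from seed in sterilized diluvial soil at 25 to 30° C. Herbicidal effects were scored three weeks later.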

[13] = test system: water foxtail; experiment: as above; settings: dose 3.2 g/a, three weeks after application
In short: as §2

[14] = test system: common lambsquater; experiment: as above; settings: dose 3.2 g/a, three weeks after application
In short: as §2

[15] = test system: large crabgrass; experiment: as above; settings: dose 3.2 g/a, three weeks after application
In short: as §2

[16] = test system: Italian ryegrass; experiment: as above; settings: dose 3.2 g/a, three weeks after application
In short: as §2

[17] = test system: beadstraw; experiment: as above; settings: dose 3.2 g/a, three weeks after application
In short: as §2

[18] = test system: giant foxtail; experiment: as above; settings: dose 3.2 g/a, three weeks after application
In short: as §2

[19] = test system: common chickweed; experiment: as above; settings: dose 3.2 g/a, three weeks after application
In short: as §2

[20] = test system: common ragweed; experiment: as above; settings: dose 3.2 g/a, three weeks after application
In short: as §2

[21] = test system: barnyardgrass; experiment: as above; settings: dose 3.2 g/a, three weeks after application
In short: as §2

[22] = test system: velvetleaf; experiment: as above; settings: dose 3.2 g/a, three weeks after application
In short: as §2

[23] = test system: redroot pigweed; experiment: as above; settings: dose 3.2 g/a, three weeks after application
In short: as §2

[24] = test system: barnyardgrass; experiment: Test Example 1: herbicidal effects in preemergence treatment under submerged conditions; settings: dose 2.52 g/a
In short: (§3)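 Flooded-paddy preemergence assay; EC diluted with water, surface-applied at weed seeding; doses g/a; rice transplanted at 2.5 leaves; 0–5 mortality score after 3 weeks.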

[25] = test system: ducksalad; experiment: as above; settings: dose 2.52 g/a
In short: as §3

[26] = test system: bulrush; experiment: as above; settings: dose 2.52 g/a
In short: as §3

[27] = test system: barnyardgrass; experiment: Test Example 2: herbicidal effects during the vegetation period under submerged conditions; settings: treatment during the vegetation period under submerged conditions; dose 2.52 g/a
In short: (§4)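 Barnyardgrass, bulrush and ducksalad were co-sown in alluvial soil flooded to 4 cm and grown in a greenhouse at 25 to 30° C. At the 1- or 2-leaf stage, water-diluted emulsifiable concentrates went onto the water surface at set doses (g/a). Herbicidal effect was scored three weeks later on a graded scale.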

[28] = test system: ducksalad; experiment: as above; settings: treatment during the vegetation period under submerged conditions; dose 2.52 g/a
In short: as §4

[29] = test system: bulrush; experiment: as above; settings: treatment during the vegetation period under submerged conditions; dose 2.52 g/a
In short: as §4

[30] = test system: transplanted rice; experiment: Test Example 1: preemergence treatment under submerged conditions, effect on crop; settings: dose 2.52 g/a
In short: as §3

SMILES	M: posumbu knotweed, herbicidal effect (evaluation scale 0-5) [1]	G: water foxtail, herbicidal effect (evaluation scale 0-5) [2]	L: common lambsquater, herbicidal effect (evaluation scale 0-5) [3]	D: large crabgrass, herbicidal effect (evaluation scale 0-5) [4]	H: Italian ryegrass, herbicidal effect (evaluation scale 0-5) [5]	E: giant foxtail, herbicidal effect (evaluation scale 0-5) [6]	N: common chickweed, herbicidal effect (evaluation scale 0-5) [7]	J: common ragweed, herbicidal effect (evaluation scale 0-5) [8]	A: barnyardgrass, herbicidal effect (evaluation scale 0-5) [9]	I: velvetleaf, herbicidal effect (evaluation scale 0-5) [10]	K: redroot pigweed, herbicidal effect (evaluation scale 0-5) [11]	M: posumbu knotweed, herbicidal effect [12]	G: water foxtail, herbicidal effect [13]	L: common lambsquater, herbicidal effect [14]	D: large crabgrass, herbicidal effect [15]	H: Italian ryegrass, herbicidal effect [16]	O: beadstraw, herbicidal effect [17]	E: giant foxtail, herbicidal effect [18]	N: common chickweed, herbicidal effect [19]	J: common ragweed, herbicidal effect [20]	other results
CCC1(C)CC(=O)N(Cc2ccccc2NS(=O)(=O)C(F)(F)F)CO1 (stereo not drawn) [II-40]	4 (mortality of at least 70% and less than 90%)	5 (mortality of 90% or above (nearly complete death))	0 (mortality of less than 5% (almost ineffective))	5 (mortality of 90% or above (nearly complete death))	5 (mortality of 90% or above (nearly complete death))	5 (mortality of 90% or above (nearly complete death))	5 (mortality of 90% or above (nearly complete death))	5 (mortality of 90% or above (nearly complete death))	5 (mortality of 90% or above (nearly complete death))	5 (mortality of 90% or above (nearly complete death))	4 (mortality of at least 70% and less than 90%)	0 (mortality of less than 5% (almost ineffective))	5 (mortality of 90% or above (nearly complete death))	4 (mortality of at least 70% and less than 90%)	3 (mortality of at least 40% and less than 70%)	5 (mortality of 90% or above (nearly complete death))	3 (mortality of at least 40% and less than 70%)	4 (mortality of at least 70% and less than 90%)	4 (mortality of at least 70% and less than 90%)	4 (mortality of at least 70% and less than 90%)	A: barnyardgrass, herbicidal effect [21]: 5 (mortality of 90% or above (nearly complete death)); I: velvetleaf, herbicidal effect [22]: 5 (mortality of 90% or above (nearly complete death)); K: redroot pigweed, herbicidal effect [23]: 0 (mortality of less than 5% (almost ineffective)); A: barnyardgrass, herbicidal effect (evaluation scale 0-5) [24]: 5 (mortality of 90% or above (nearly complete death)); C: ducksalad, herbicidal effect (evaluation scale 0-5) [25]: 5 (mortality of 90% or above (nearly complete death)); B: bulrush, herbicidal effect (evaluation scale 0-5) [26]: 5 (mortality of 90% or above (nearly complete death)); A: barnyardgrass, herbicidal effect (evaluation scale 0-5) [27]: 4 (mortality of at least 70% and less than 90%); C: ducksalad, herbicidal effect (evaluation scale 0-5) [28]: 5 (mortality of 90% or above (nearly complete death)); B: bulrush, herbicidal effect (evaluation scale 0-5) [29]: 5 (mortality of 90% or above (nearly complete death)); a: transplanted rice, effect on crop (evaluation scale 0-5) [30]: 0 (mortality of less than 5% (almost ineffective))
CCOC(=O)N(c1ccccc1CN1COC(C)(CC(F)(F)F)CC1=O)S(=O)(=O)C(F)(F)F (stereo not drawn) [II-53]	5 (mortality of 90% or above (nearly complete death))	5 (mortality of 90% or above (nearly complete death))	0 (mortality of less than 5% (almost ineffective))	5 (mortality of 90% or above (nearly complete death))	3 (mortality of at least 40% and less than 70%)	5 (mortality of 90% or above (nearly complete death))	5 (mortality of 90% or above (nearly complete death))	4 (mortality of at least 70% and less than 90%)	5 (mortality of 90% or above (nearly complete death))	5 (mortality of 90% or above (nearly complete death))	0 (mortality of less than 5% (almost ineffective))	4 (mortality of at least 70% and less than 90%)	5 (mortality of 90% or above (nearly complete death))	2 (mortality of at least 20% and less than 40%)	3 (mortality of at least 40% and less than 70%)	4 (mortality of at least 70% and less than 90%)	5 (mortality of 90% or above (nearly complete death))	3 (mortality of at least 40% and less than 70%)	5 (mortality of 90% or above (nearly complete death))	3 (mortality of at least 40% and less than 70%)	A: barnyardgrass, herbicidal effect [21]: 4 (mortality of at least 70% and less than 90%); I: velvetleaf, herbicidal effect [22]: 4 (mortality of at least 70% and less than 90%); K: redroot pigweed, herbicidal effect [23]: 0 (mortality of less than 5% (almost ineffective)); A: barnyardgrass, herbicidal effect (evaluation scale 0-5) [24]: 5 (mortality of 90% or above (nearly complete death)); C: ducksalad, herbicidal effect (evaluation scale 0-5) [25]: 5 (mortality of 90% or above (nearly complete death)); B: bulrush, herbicidal effect (evaluation scale 0-5) [26]: 5 (mortality of 90% or above (nearly complete death)); A: barnyardgrass, herbicidal effect (evaluation scale 0-5) [27]: 5 (mortality of 90% or above (nearly complete death)); C: ducksalad, herbicidal effect (evaluation scale 0-5) [28]: 5 (mortality of 90% or above (nearly complete death)); B: bulrush, herbicidal effect (evaluation scale 0-5) [29]: 5 (mortality of 90% or above (nearly complete death)); a: transplanted rice, effect on crop (evaluation scale 0-5) [30]: 0 (mortality of less than 5% (almost ineffective))
